Experimental data as given in EP3502109A1, “TRIAZOLE-PHENYL-THIAZOLE HETEROCYCLES AS INNOVATIVE INHIBITORS OF TRYPANOTHIONE REDUCTASE AND THEIR USE AS LEISHMANICIDES” (Consejo Superior De Investigaciones Científicas, priority 2017, dated 2019).
Counter-ions that a name gives are not always drawn. Like-named read-outs stand apart in the source and are kept apart here.

What was measured:
recombinant Li-TryR = recombinant Li-TryR (Leishmania infantum, UniProt A4HSF7); experiment: Li-TryR oxidoreductase activity assay; assay type: biochemical
Chain of recombinant Li-TryR (A4HSF7 entry or part of it): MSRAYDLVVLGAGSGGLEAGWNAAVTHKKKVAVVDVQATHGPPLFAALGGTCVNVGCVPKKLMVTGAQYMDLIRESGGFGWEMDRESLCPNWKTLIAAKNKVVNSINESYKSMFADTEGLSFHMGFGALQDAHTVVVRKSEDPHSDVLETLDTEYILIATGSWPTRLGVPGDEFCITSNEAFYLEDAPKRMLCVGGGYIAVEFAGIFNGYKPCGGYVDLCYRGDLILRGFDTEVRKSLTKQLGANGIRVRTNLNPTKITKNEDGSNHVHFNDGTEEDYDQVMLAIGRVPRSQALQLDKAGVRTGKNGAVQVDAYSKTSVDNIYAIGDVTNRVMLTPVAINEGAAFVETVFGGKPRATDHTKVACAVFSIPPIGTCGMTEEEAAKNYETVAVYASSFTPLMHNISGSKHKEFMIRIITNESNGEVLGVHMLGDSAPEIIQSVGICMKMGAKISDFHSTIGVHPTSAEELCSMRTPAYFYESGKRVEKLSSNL
Method: Oxidoreductase activity was determined according to the method described by Hamilton et al. (Biochem. J., 2003, 369, 529-537). Briefly, reactions were carried out at 26 °C (250 µL) of HEPES pH 8.0 (40 mM) buffer containing EDTA (1 mM), NADPH (150 µM), NADP+ (30 µM), DTNB (25 µM), T[S]2 (1 µM), glicerol (0.02%), DMSO (1.5%) and recombinant Li-TryR (7 nM). […] Enzyme activity was monitored by the increase in absorbance at 412 nm for 1 h at 26 °C in a VERSAmax microplate reader (Molecular Devices, California, USA). All the assays were conducted in triplicate in at least three independent experiments. Data were analyzed using a non-linear regression model with the Grafit6 software (Erithacus, Horley, Surrey, UK).

Li-TryR dimeric form = Li-TryR dimeric form (Leishmania infantum, UniProt A4HSF7); experiment: Dimer quantitation assay (ELISA), Li-TryR monomer displacement; assay type: binding
Chain of Li-TryR dimeric form (A4HSF7 entry or part of it): as above
Method: The stability of the Li-TryR dimeric form in the presence of the compounds was evaluated using an Enzyme-Linked ImmunoSorbent Assay (ELISA). Briefly a dual (HIS/FLAG) tagged Li-TryR (400 nM) was incubated in a dimerization buffer (200 µL 300 mM NaCl, 50 mM Tris pH 8.0) for 16 h at 37 °C with agitation and in a humid atmosphere in the presence of different peptide concentration (10 to 90 µM) in 1.5ml tubes. Next, the tubes were centrifuged at 30000 rcf and supernatants were disposed in anti-flag coated 96 well plates and incubated 30 min, at 37°C with gentle shaking. Then the plates were washed ten times with TTBS (Tween 0.1%, 2 mM Tris, 138 mM NaCl 138 pH 7.6) and incubated with diluted monoclonal α-HIS HRP conjugated antibody (200 µL, Abcam, Cambridge, UK) in BSA (5%) in TTBS for 1 h at room temperature. The plates were washed once again as previously described and 1,2-phenylenediamine dihydrochloride (OPD) substrate (100 µL, Dako, Glostrup, Denmark) prepared according to manufacturer's instructions was added. The enzymatic reaction was stopped after 10 min with H2SO4 (100 µL, 0.5 M) and the absorbances were measured at 490 nm in a VERSAmax microplate reader (Molecular Devices, California, USA). All the assays were conducted in triplicate in at least three independent experiments. Data were analyzed using a non-linear regression model with the Grafit6 software (Erithacus, Horley, Surrey, UK). Table 1. IC50 ± SEM values for target compounds of formula I-A and I-B in the oxidoreductase activity assays and in the Li-TryR monomer displacement

[1] = tested on: L. infantum promastigotes; experiment: Leishmanicidal activity on promastigotes (PI exclusion, flow cytometry); assay type: cell-based; details: Leishmania infantum, 24 h
Method: L. infantum promastigotes (MCAN/ES/ 89/IPZ229/1/89) were grown in RPMI-1640 medium (Sigma-Aldrich, St. Louis, MO, USA) supplemented with 10% heat-inactivated fetal calf serum (FCS), antibiotics, and 25 mm HEPES (pH 7.2) at 26 °C.
(§1) Drug treatment of amastigotes was performed during the logarithmic growth phase at a concentration of 1×10^6 parasites/mL at 37 °C for 24 h. Drug treatment of promastigotes was performed during the logarithmic growth phase at a concentration of 2×10^6 parasites/mL at 26 °C for 24 h. The percentage of living cells was evaluated by flow cytometry by the propidium iodide (PI) exclusion method.^17 Drug concentrations ranged from 0.2 µM to 25 µM.

[2] = tested on: L. infantum axenic amastigotes; experiment: Leishmanicidal activity on axenic amastigotes (PI exclusion, flow cytometry); assay type: cell-based; details: Leishmania infantum, 24 h
Method: L. infantum axenic amastigotes were grown in M199 (Invitrogen, Leiden, The Netherlands) medium supplemented with 10% heat inactivated FCS, 1 g/L β-alanine, 100 mg/L L-asparagine, 200 mg/L sacarose, 50 mg/L sodium pyruvate, 320 mg/L malic acid, 40 mg/L fumaric acid, 70 mg/L succinic acid, 200 mg/L α-ketoglutaric acid, 300 mg/L citric acid, 1.1 g/L sodium bicarbonate, 5 g/L MES, 0.4 mg/L hemin, 10 mg/L gentamicine pH 5.4 at 37 °C. THP-1 cells were grown in RPMI-1640 medium (Gibco, Leiden, The Netherlands) supplemented with 10% heat inactivated FCS, antibiotics, 1 mM HEPES, 2 mM glutamine and 1 mM sodium pyruvate, pH 7.2 at 37 °C and 5% CO2.
as §1

[3] = tested on: macrophage-differentiated THP-1 monocytes; experiment: Cytotoxicity assay, macrophage-differentiated THP-1 (crystal violet); assay type: cell-based; details: Homo sapiens, THP-1, 24 h; read-out: EC50 (µM) THP-1 dif
Method: (§2) Human THP-1 monocytic cells were seeded at 1.2 x 10^5 cells/ml in 24-multidish plates (Nunc, Roskilde, Denmark) and differentiated to macrophages for 24 h in 1 ml of RPMI 1640 medium containing 10 ng/ml of phorbol 12-myristate 13-acetate (PMA) (Sigma-Aldrich, St. Louis, MO). Human HepG2 cells were seeded at 8 x 10^5 cells/ml in 24-multidish plates (Nunc, Roskilde, Denmark). After 24 h of drug treatment, both cell lines were washed with PBS and stained with violet crystal solution (0.2% in 2% ethanol) in for 10 min. at room temperature. After dye removal, cells were washed twice with water. Once dried, the wells were treated with 1% SDS for 30 min and the absorbance at 570nm was monitored in a plate reader. Table 2. EC50± SEM values for the compounds of formula I-A and I-B on L. infantum promastigotes, extracellular and intracellular amastigotes and cytotoxic activity in macrophage-differentiated THP-1 monocytes and HepG2 cell lines

HepG2 cells = experiment: Cytotoxicity assay, HepG2 (crystal violet); assay type: cell-based; details: Homo sapiens, HepG2, 24 h
Method: as §2

| Compound | IC50 (recombinant Li-TryR; read-out: IC50 act) | IC50 (Li-TryR dimeric form; read-out: IC50 dim) | other results |
| --- | --- | --- | --- |
| CC[n+]1nn(-c2ccc(-c3nc(CCc4ccc(-c5ccccc5)cc4)cs3)c(OCCN3CCNC3=O)c2)cc1CCCCN [Compound 10f, 1-(4-(4-(2-([1,1'-Biphenyl]-4-yl)ethyl)thiazol-2-yl)-3-(2-(2-oxoimidazolidin-1-yl)ethoxy)phenyl)-4-(4-ammoniobutyl)-3-ethyl-1H-1,2,3-triazol-3-ium 2,2,2-trifluoroacetate trifluoromethanesulfonate] |  |  | IC50 (recombinant Li-TryR): 3.88 ± 0.55 µM; IC50 (Li-TryR dimeric form): 87.06 ± 0.1 µM; EC50 [1]: 6.03 ± 0.49 µM; EC50 [2]: 15.5 ± 0.7 µM; EC50 [3]: 19.9 ± 1.1 µM; EC50 (HepG2 cells): 69.9 ± 2.97 µM |
| C[n+]1nn(-c2ccc(-c3nc(CCc4ccccc4)cs3)c(OCCN3CCNC3=O)c2)cc1CCCCN [Compound 10b, 4-(4-Ammoniobutyl)-3-methyl-1-(3-(2-(2-oxoimidazolidin-1-yl)ethoxy)-4-(4-phenethylthiazol-2-yl)phenyl)-1H-1,2,3-triazol-3-ium 2,2,2-trifluoroacetate trifluoromethanesulfonate] | 12.9 ± 0.98 µM | > 75 µM |  |
| C[n+]1nn(-c2ccc(-c3nc(CCc4ccc5c(c4)CCO5)cs3)c(OCCN3CCNC3=O)c2)cc1CCCCN [Compound 10d, 4-(4-Ammoniobutyl)-1-(4-(4-(2-(2,3-dihydrobenzofuran-5-yl)ethyl)thiazol-2-yl)-3-(2-(2-oxoimidazolidin-1-yl)ethoxy)phenyl)-3-methyl-1H-1,2,3-triazol-3-ium 2,2,2-trifluoroacetate trifluoromethanesulfonate] |  |  | IC50 (recombinant Li-TryR): 5.42 ± 0.23 µM; IC50 (Li-TryR dimeric form): > 75 µM; EC50 [1]: 47 ± 2.08 µM; EC50 [2]: ≥ 75 µM; EC50 [3]: ≥ 75 µM; EC50 (HepG2 cells): ≥ 75 µM |
| C[n+]1nn(-c2ccc(-c3nc(CCc4ccc(-c5ccccc5)cc4)cs3)c(OCCN3CCNC3=O)c2)cc1CCCN [Compound 10j, 1-(4-(4-(2-([1,1'-Biphenyl]-4-yl)ethyl)thiazol-2-yl)-3-(2-(2-oxoimidazolidin-1-yl)ethoxy)phenyl)-4-(3-ammoniopropyl)-3-methyl-1H-1,2,3-triazol-3-ium 2,2,2-trifluoroacetate trifluoromethanesulfonate] | 6.99 ± 0.59 µM | 30.2 ± 3.47 µM |  |
| NCCCCc1cn(-c2ccc(-c3nc(-c4ccccc4)c(-c4ccccc4)s3)c(OCCN3CCNC3=O)c2)nn1 [Compound 8p, 1-(2-(5-(4-(4-Aminobutyl)-1H-1,2,3-triazol-1-yl)-2-(4,5-diphenylthiazol-2-yl)phenoxy)ethyl)imidazolidin-2-one 2,2,2 trifluoroacetate] | 6.07 ± 1.01 µM | 4.15 ± 1.92 µM |  |
| NCCCCc1cn(-c2ccc(-c3nc(CCc4ccccc4)cs3)c(OCCC3CCNCC3)c2)nn1 [Compound 8l, 4-(1-(4-(4-phenethylthiazol-2-yl)-3-(2-(piperidin-4-yl)ethoxy)phenyl)-1H-1,2,3-triazol-4-yl)butan-1-amine 2,2,2 trifluoroacetate] | 5.78 ± 0.89 µM | > 75 µM |  |
| C[n+]1nn(-c2ccc(-c3nc(-c4ccccc4)cs3)c(OCCN3CCNC3=O)c2)cc1CCCCN [Compound 10a, 4-(4-Ammoniobutyl)-3-methyl-1-(3-(2-(2-oxoimidazolidin-1-yl)ethoxy)-4-(4-phenylthiazol-2-yl)phenyl)-1H-1,2,3-triazol-3-ium 2,2,2-trifluoroacetate trifluoromethanesulfonate] | 22.8 ± 0.98 µM | > 75 µM |  |
| CC(C)Oc1csc(-c2ccc(-n3cc(CCCCN)nn3)cc2OCCN2CCNC2=O)n1 [Compound 8a, 1-(2-(5-(4-(4-Aminobutyl)-1H-1,2,3-triazol-1-yl)-2-(4-isopropoxythiazol-2-yl)phenoxy)ethyl)imidazolidin-2-one 2,2,2 trifluoroacetate] | 50.2 ± 2.37 µM | > 75 µM |  |
| C[n+]1nn(-c2ccc(-c3nc(-c4ccccc4)c(-c4ccccc4)s3)c(OCCN3CCNC3=O)c2)cc1CCCCN [Compound 10l, 4-(4-Ammoniobutyl)-1-(4-(4,5-diphenylthiazol-2-yl)-3-(2-(2-oxoimidazolidin-1-yl)ethoxy)phenyl)-3-methyl-1H-1,2,3-triazol-3-ium 2,2,2-trifluoroacetate trifluoromethanesulfonate] | 9.31 ± 0.92 µM | > 75 µM |  |
| COc1cc(-n2cc(CCCCN)nn2)ccc1-c1nc(CCc2ccccc2)cs1 [Compound 8m, 4-(1-(3-Methoxy-4-(4-phenethylthiazol-2-yl)phenyl)-1H-1,2,3-triazol-4-yl)butan-1-amine 2,2,2 trifluoroacetate] |  |  | IC50 (recombinant Li-TryR): 17.5 ± 2.91 µM; IC50 (Li-TryR dimeric form): 89.2 ± 29.6 µM; EC50 [1]: 9.56 ± 0.44 µM; EC50 [2]: 7.1 ± 0.9 µM |
| C[n+]1nn(-c2ccc(-c3nc(CCc4ccccc4)cs3)c(OCCC3CCNCC3)c2)cc1CCCCN [Compound 10k, Mono (4-(2-(5-(4-(4-ammoniobutyl)-3-methyl-1H-1,2,3-triazol-3-ium-1-yl)-2-(4-phenethylthiazol-2-yl)phenoxy)ethyl)piperidin-1-ium) mono(2,2,2-trifluoroacetate) mono(trifluoromethanesulfonate)] | 3.35 ± 0.3 µM | > 75 µM |  |
| C[n+]1nn(-c2ccc(-c3nc(CCc4ccccc4)cs3)c(OCCN3CCNC3=O)c2)cc1CCCN [Compound 10i, 4-(3-Ammoniopropyl)-3-methyl-1-(3-(2-(2-oxoimidazolidin-1-yl)ethoxy)-4-(4-phenethylthiazol-2-yl)phenyl)-1H-1,2,3-triazol-3-ium 2,2,2-trifluoroacetate trifluoromethanesulfonate] | 21.5 ± 2.87 µM | > 75 µM |  |
| NCCCCc1cn(-c2ccc(-c3nc(-c4ccccc4)cs3)c(OCCN3CCNC3=O)c2)nn1 [Compound 8c, 1-(2-(5-(4-(4-aminobutyl)-1H-1,2,3-triazol-1-yl)-2-(4-phenylthiazol-2-yl)phenoxy)ethyl)imidazolidin-2-one 2,2,2 trifluoroacetate] | 24 ± 1.69 µM | 29 ± 1.51 µM |  |
| NCCCc1cn(-c2ccc(-c3nc(CCc4ccccc4)cs3)c(OCCN3CCNC3=O)c2)nn1 [Compound 8n, 1-(2-(5-(4-(3-aminopropyl)-1H-1,2,3-triazol-1-yl)-2-(4-phenethylthiazol-2-yl)phenoxy)ethyl)imidazolidin-2-one 2,2,2 trifluoroacetate] | 41.2 ± 8.48 µM | > 75 µM |  |
| NCCCc1cn(-c2ccc(-c3nc(CCc4ccc(-c5ccccc5)cc4)cs3)c(OCCN3CCNC3=O)c2)nn1 [Compound 8o, 1-(2-(2-(4-(2-([1,1'-Biphenyl]-4-yl)ethyl)thiazol-2-yl)-5-(4-(3-aminopropyl)-1H-1,2,3-triazol-1-yl)phenoxy)ethyl)imidazolidin-2-one 2,2,2 trifluoroacetate] | 21.8 ± 5.49 µM | 11.1 ± 0.44 µM |  |
